In patent publication US4349526A, “Process for the production of hydrogen peroxide” (Degussa Aktiengesellschaft, priority 1980, dated 1982):

What was measured:
[1] = Oxidation breakdown on gassing with dry air at 140° C., 2.5 hours; type: physicochemical; details: 36 liters dry air per hour, 150 ml urea, decrease of urea based on starting content
Procedure: In a gassing apparatus equipped with gassing frit and intensive condenser in each case gassing was carried out with 150 ml of the ureas set forth in Table 4 using 36 liters of dry air per hour at a temperature of 140° C. for 2.5 hours. During the test half hourly samples were drawn off and the oxidative breakdown followed by means of capillary gas chromatography. As a measure for the oxidative breakdown the decrease of the amount of urea in percentage based on the starting urea content is used.

[2] = Density; type: physicochemical
[3] = Oxidation resistance of hydroquinone solvents, gassing with dry air at 140° C., 50 hours; type: physicochemical; details: 36 liters dry air per hour, 150 ml solvent; gas chromatography
Procedure: The hydroquinone solvent content in percent based on the starting hydroquinone content was determined gas chromatographically and set forth in Table 5.

[4] = Mutual solubility of urea and water; type: physicochemical
[5] = Viscosity; type: physicochemical
[6] = in words; German AS; cited from earlier work

Oxidation Breakdown After 2.5 hours [1] [%] | Hydroquinone Solvent Content (%) after 50 hours Gassing at 140° C. [3] [%] | Compound | other results
0 | – | CN(C(=O)N1CCOCC1)c1ccccc1 [N'-methyl-N'-phenylcarbamoyl-N-morpholine] | –
0 | – | CCC(C)N(C)C(=O)N(C)c1ccccc1 (stereo not drawn) [N,N'-dimethyl-N-s-butyl-N'-phenylurea] | –
0 | – | CC(C)N(C(=O)N(C)c1ccccc1)C(C)C [N,N-di-i-propyl-N'-methyl-N'-phenylurea] | –
0 | 100.0 | CCCCN(CCCC)C(=O)N(C)c1ccccc1 [N,N-dibutyl-N'-methyl-N'-phenylurea] | Density (50° C.) ([2]; Table 2): 0.9499 g/mL; Density (50° C.) ([2]; Table 3): 0.950 g/mL; Solubility in Water at 20° C. [4]: 0.01%; Viscosity (50° C.) [5]: 9.2 cP
9.2 | 86.6 | CCCCN(CCCC)C(=O)N(CC)CC [N,N-diethyl-N',N'-dibutylurea, reference compound] | –
0 | – | CCN(CC)C(=O)N(C)c1ccccc1 [N,N-diethyl-N'-methyl-N'-phenylurea] | Density (50° C.) ([2]; Table 2): 0.9941 g/mL
2.6 | – | CC(C)N(C(=O)N(C)C)C(C)C [N,N-dimethyl-N'-di-i-propylurea, reference compound] | –
0 | 100.0 | CCCN(CCC)C(=O)N(C)c1ccccc1 [N,N-dipropyl-N'-methyl-N'-phenylurea] | Density (50° C.) ([2]; Table 2): 0.9690 g/mL
– | 16.6 | CC(C)CC(O)CC(C)C [di-i-butylcarbinol] | –
– | – | CC(C)(C)c1ccccc1 [tert. butyl benzene] | oxidation resistance [6]: oxidation resistant
– | 100.0 | N,N-di-i-propyl-N'-phenylurea | –

Compound | Oxidation Breakdown After 2.5 hours [1] [%] | Hydroquinone Solvent Content (%) after 50 hours Gassing at 140° C. [3] [%] | other results
CN(C)C(=O)N(C)c1ccccc1 [N,N,N'-trimethyl-N'-phenylurea] | 0 | – | Density (50° C.) ([2]; Table 2): 1.0392 g/mL
CCCCC(CC)COP(=O)(OCC(CC)CCCC)OCC(CC)CCCC (stereo not drawn) [tris-2-ethylhexyl phosphate] | – | 88.3 | –
methylcyclohexyl acetate | – | 77.4 | –
